Source: patent publication US8119647B2, “Fused pyrimidineone compounds as TRPV3 modulators” (Glenmark Pharmaceuticals S.A., priority 2008, dated 2012)
Where two headings read alike, the source gives them in different places.

Molecular target: T1, Human TRPV3 (Homo sapiens, UniProt Q8NET8)
T1 construct: expressed in transfected cells; host or cells: CHO cells (G-418 selection)
T1 sequence (Q8NET8 1-790): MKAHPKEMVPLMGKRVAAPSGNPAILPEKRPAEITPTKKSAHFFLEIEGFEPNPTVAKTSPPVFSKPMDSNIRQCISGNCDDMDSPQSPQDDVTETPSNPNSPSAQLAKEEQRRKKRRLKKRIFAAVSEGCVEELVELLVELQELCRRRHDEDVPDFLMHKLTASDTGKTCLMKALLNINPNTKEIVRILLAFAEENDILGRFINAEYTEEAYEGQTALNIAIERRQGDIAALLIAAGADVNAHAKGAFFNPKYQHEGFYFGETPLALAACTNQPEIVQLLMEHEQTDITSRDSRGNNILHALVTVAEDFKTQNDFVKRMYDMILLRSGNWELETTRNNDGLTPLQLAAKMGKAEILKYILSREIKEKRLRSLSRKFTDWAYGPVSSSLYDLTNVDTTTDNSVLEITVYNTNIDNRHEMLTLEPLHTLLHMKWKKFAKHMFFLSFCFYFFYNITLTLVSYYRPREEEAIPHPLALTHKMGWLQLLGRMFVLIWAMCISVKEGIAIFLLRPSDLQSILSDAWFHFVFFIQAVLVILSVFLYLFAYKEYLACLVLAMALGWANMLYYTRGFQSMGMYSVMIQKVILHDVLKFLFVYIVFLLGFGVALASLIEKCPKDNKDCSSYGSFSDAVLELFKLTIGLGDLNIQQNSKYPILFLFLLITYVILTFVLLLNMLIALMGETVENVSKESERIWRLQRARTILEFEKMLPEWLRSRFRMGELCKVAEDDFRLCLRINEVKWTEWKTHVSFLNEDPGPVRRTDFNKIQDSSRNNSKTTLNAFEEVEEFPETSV
Assay: Screening for TRPV3 antagonist using the 45Calcium uptake assay (inhibition of 2-APB induced cellular uptake of radioactive calcium)
Assay type: cell-based
Conditions: for inhibition at 1 µM / Percentage inhibition at 1.0 μM: 1.0 μM test compound; for inhibition at 1 µM: read-out: Percentage inhibition at 1.0 μM; for inhibition at 10 µM: read-out: Percentage inhibition at 10.0 μM; for IC50: class symbols
Text: The illustrative examples of the present invention are screened for TRPV3 activity according to a modified procedure described in Tóth, A., Kedei, N., Wang, Y. and Blumberg, P. M. Life Sciences (2003), 73, 487-498. The screening of the compounds can be carried out by other methods and procedures known to a person skilled in the art. Such screening methods may be found in (a) Hu, H.-Z. et al. J. Biol. Chem. (2004), 279, 35741-35747; (b) Smith, G. D. et al. Nature (2002), 418, 186-190; (c) Peier, A. M. et al. Science (2002), 296, 2046-2049.
Screening for TRPV3 Antagonist Using the ^45Calcium Uptake Assay:
The inhibition of TRPV3 receptor activation was followed as inhibition of 2-aminoethoxydiphenylborate (2-APB) induced cellular uptake of radioactive calcium. Test compounds were dissolved in dimethyl sulfoxide (DMSO) to prepare 20 mM stock solution and then diluted using plain medium with DMEM/F-12 containing 1.8 mM CaCl2 to get desired concentration. Final concentration of DMSO in the reaction was 0.5% (v/v). Human TRPV3 expressing CHO cells were grown in DMEM/F-12 medium with 10% FBS, 1% penicillin-streptomycin solution, 400 μg/ml of G-418. Cells were seeded 24 h prior to the assay in 96 well plates so as to get ˜50,000 cells per well on the day of experiment. Cells were treated with test compounds for 10 minutes followed by addition of 2-APB at a final concentration of 500 μM and 5 μCi/ml ^45Ca^+2 for 4 minutes. Cells were washed and lysed using buffer containing 1% Triton X-100, 0.1% deoxycholate and 0.1% SDS. Radioactivity in the lysate was measured in Packardt Top count after addition of liquid scintillant. Concentration response curves were plotted as a % of maximal response obtained in the absence of test antagonist. IC50 value was calculated from concentration response curve by nonlinear regression analysis using GraphPad PRISM software.
Percentage inhibition at concentrations of 1.0 μM and 10.0 μM are given in the table along with IC50 (nM) values for selected examples.

[1] = human TRPV3 expressing CHO cells, 2-APB 500 μM
[2] = 10.0 μM test compound, human TRPV3 expressing CHO cells, 2-APB 500 μM

| inhibition at 1 µM [1] | inhibition at 10 µM [2] | IC50 [1] | Percentage inhibition at 10.0 μM | Structure (SMILES) | Percentage inhibition at 1.0 μM [1] | Percentage inhibition at 10.0 μM [2] |
| --- | --- | --- | --- | --- | --- | --- |
| 36.3% | 67.4% | – | – | O=c1c(-c2ccc(C(F)(F)F)cc2)c(/C=C/c2ccccc2OCC2CC2)nc2sccn12 [Example 24] | – | – |
| 61.1% | 80.8% | – | – | COc1cccc(/C=C/c2nc3sccn3c(=O)c2-c2ccc(OC(F)(F)F)cc2)c1OCC1CCCCC1 [Example 71, 7-[(E)-2-(2-Cyclohexylmethoxy-3-methoxyphenyl)-1-ethenyl]-6-[4-(trifluoromethoxy)phenyl]-5H-[1,3]thiazolo[3,2-a]pyrimidin-5-one] | – | – |
| – | – | – | – | COc1cccc(/C=C/c2nc3sc4ccccc4n3c(=O)c2-c2ccc(C#N)cc2)c1OCC1CC1 [Example 86] | 45.5% | 75.6% |
| 83.8% | 93.7% | 250 to 500 nM | – | COCCOc1c(/C=C/c2nc3sc4ccccc4n3c(=O)c2-c2ccc(C#N)cc2)cccc1OC [Example 84, 4-(2-{(E)-2-[3-Methoxy-2-(methoxyethoxy)phenyl}-1-ethenyl}-4-oxo-4H-benzo[4,5]-[1,3]thiazolo-[3,2]pyrimidin-3-yl)benzonitrile] | – | – |
| – | – | – | – | COc1cccc(/C=C/c2nc3sc4ccccc4n3c(=O)c2-c2ccc(C#N)cc2)c1OCCC(C)C [Example 88, 4-{2-[(E)-2-[2-(3-Methylbutoxy-3-methoxy]phenyl}-1-ethenyl]-4-oxo-4H-benzo[4,5]-[1,3]thiazolo-[3,2]pyrimidin-3-yl)benzonitrile] | 32.87% | 51.88% |
| – | – | – | 81.57% | COc1cccc(/C=C/c2nc3sc4ccccc4n3c(=O)c2-c2ccc(C#N)cc2)c1OCc1ccccn1 [Example 90] | 51.24% | – |
| – | – | – | – | COc1cccc(/C=C/c2nc3sccn3c(=O)c2-c2ccc(C(F)(F)F)cc2)c1OCCCC#N [Example 30] | 45.2% | 75.9% |
| – | – | – | – | COc1cccc(/C=C/c2nc3sc4ccccc4n3c(=O)c2-c2ccc(C(F)(F)F)cc2)c1OCC1CC1 [Example 91, 2-{(E)-2-[(2-Cyclopropylmethoxy)-3-methoxyphenyl]-1-ethenyl}-3-(4-trifluoromethyl-phenyl)-4H-benzo[4,5][1,3]thiazolo-[3,2-a]pyrimidin-4-one] | 4.98% | 19.85% |
| 76% | 95.3% | 250 to 500 nM | – | COc1cccc(/C=C/c2nc3sccn3c(=O)c2-c2ccc(N(C)C)cc2)c1OCC1CC1 [Example 6, 6-(4-Dimethylaminophenyl)-7-[(E)-2-(2-cyclopropylmethoxy-3-methoxyphenyl]-1-ethenyl]-5H-[1,3]thiazolo[3,2-a]pyrimidin-5-one] | – | – |
| 86.3% | 90.4% | < 250 nM | – | COc1cccc(/C=C/c2nc3sc(C)cn3c(=O)c2-c2ccc(OC(F)(F)F)cc2)c1OCC1CC1 [Example 75, 7-[(E)-2-(2-Cyclopropylmethoxy-3-methoxyphenyl)-1-ethenyl]-2-methyl-6-[4-(trifluoromethoxy)phenyl]-5H-[1,3]thiazolo[3,2-a]pyrimidin-5-one] | – | – |
| – | – | – | – | O=c1c(-c2ccc(OC(F)(F)F)cc2)c(/C=C/c2cccc(O)c2OCC2CC2)nc2sccn12 [Example 60] | 41.32% | 81.57% |
| 72.8% | 95.3% | < 250 nM | – | CCCOc1c(/C=C/c2nc3sccn3c(=O)c2-c2ccc(OC(F)(F)F)cc2)cccc1OC [Example 54, 7-[(E)-2-(3-Methoxy-2-propoxyphenyl)-1-ethenyl]-6-[4-(trifluoromethoxy)phenyl]-5H-[1,3]thiazolo[3,2-a]pyrimidin-5-one] | – | – |
| 41.3% | 77.3% | – | – | O=c1c(-c2ccc(OC(F)(F)F)cc2)c(/C=C/c2cccc(F)c2OCC2CC2)nc2sccn12 [Example 49, 7-[(E)-2-(2-Cyclopropylmethoxy-3-fluorophenyl)-1-ethenyl]-6-[4-(trifluoromethoxy)-phenyl]-5H-[1,3]thiazolo[3,2-a]pyrimidin-5-one] | – | – |
| 4.6% | 31.3% | – | – | COc1cccc(/C=C/c2nc3sccn3c(=O)c2-c2cccc(C(F)(F)F)c2)c1OCC1CC1 [Example 40, 7-[(E)-2-(2-Cyclopropylmethoxy-3-methoxyphenyl)-1-ethenyl]-6-[3-(trifluoromethyl)phenyl]-5H-[1,3]thiazolo[3,2-a]pyrimidin-5-one] | – | – |
| 69.1% | 87.7% | 500 to 1000 nM | – | COc1cccc(/C=C/c2nc3sc(Cl)cn3c(=O)c2-c2ccc(C#N)cc2)c1OCC(C)(C)C [Example 80, 4-{2-Chloro-7-[(E)-2-(2-(2,2-dimethylpropoxy)-3-methoxyphenyl)vinyl]-5-oxo-5H-[1,3]thiazolo[3,2-a]pyrimidin-6-yl}benzonitrile] | – | – |
| 73.1% | 94.8% | 500 to 1000 nM | – | CCOCCOc1c(/C=C/c2nc3sccn3c(=O)c2-c2ccc(C#N)cc2)cccc1OC [Example 15, 4-{7-[(E)-2-(2-Ethoxyethoxy-3-methoxyphenyl]-1-ethenyl}-5-oxo-5H-[1,3]thiazolo[3,2-a]pyrimidin-6-yl}benzonitrile] | – | – |
| 22.7% | 60.6% | – | – | CCOc1cccc(/C=C/c2nc3sccn3c(=O)c2-c2ccc(OC(F)(F)F)cc2)c1OCC1CC1 [Example 61, 7-{(E)-2-[2-(Cyclopropylmethoxy)-3-ethoxyphenyl}-1-ethenyl]-6-(4-trifluoromethoxy-phenyl)-5H-[1,3]thiazolo[3,2-a]pyrimidin-5-one] | – | – |
| 10.9% | 23.7% | – | – | COc1cccc(/C=C/c2nc3sc4ccccc4n3c(=O)c2-c2ccc(OC(F)(F)F)cc2)c1OCC1CC1 [Example 95] | – | – |
| – | – | – | – | COc1cccc(/C=C/c2nc3sc4ccccc4n3c(=O)c2-c2ccc(C#N)cc2)c1OCC1CCC1 [Example 89] | 26.90% | 57.53% |
| 66.9% | 97.2% | 250 to 500 nM | – | COCCOc1c(/C=C/c2nc3sccn3c(=O)c2-c2ccc(C(F)(F)F)cc2)cccc1OC [Example 31, {7-[(E)-2-(2-Methoxyethoxy-3-methoxy)phenyl}vinyl]-6-[4-(trifluoromethyl)phenyl]-5H-[1,3]thiazolo[3,2-a]pyrimidin-5-one] | – | – |
| 81.7% | 92.8% | < 250 nM | – | CCCCCOc1c(/C=C/c2nc3sccn3c(=O)c2-c2ccc(OC(F)(F)F)cc2)cccc1OC [Example 55, 7-[(E)-2-(3-Methoxy-2-pentyloxyphenyl)-1-ethenyl]-6-[4-(trifluoromethoxy)phenyl]-5H-[1,3]thiazolo[3,2-a]pyrimidin-5-one] | – | – |
| 70.7% | 89.9% | 500 to 1000 nM | – | CCCOc1c(/C=C/c2nc3sccn3c(=O)c2-c2ccc(C(F)(F)F)cc2)cccc1OC [Example 25, 7-[(E)-2-(3-Methoxy-2-propoxyphenyl)-1-ethenyl]-6-[4-(trifluoromethyl)phenyl]-5H-[1,3]thiazolo[3,2-a]pyrimidin-5-one] | – | – |
